How the values were obtained:
RyR1 = target: T1, RyR1 (Oryctolagus cuniculus, UniProt P11716); assay: Single channel electrophysiology of RyR1 channels inserted into lipid bilayers (exposure to peptide); format: biochemical, New Zealand white rabbit (skeletal SR); conditions: for relPo: without WO, relative to control
T1 construct: skeletal SR vesicles were isolated from the back and leg muscles of mature female New Zealand white rabbits; from tissue; host or cells: rabbit back and leg skeletal muscle, sarcoplasmic reticulum vesicles
T1 sequence (P11716 whole entry): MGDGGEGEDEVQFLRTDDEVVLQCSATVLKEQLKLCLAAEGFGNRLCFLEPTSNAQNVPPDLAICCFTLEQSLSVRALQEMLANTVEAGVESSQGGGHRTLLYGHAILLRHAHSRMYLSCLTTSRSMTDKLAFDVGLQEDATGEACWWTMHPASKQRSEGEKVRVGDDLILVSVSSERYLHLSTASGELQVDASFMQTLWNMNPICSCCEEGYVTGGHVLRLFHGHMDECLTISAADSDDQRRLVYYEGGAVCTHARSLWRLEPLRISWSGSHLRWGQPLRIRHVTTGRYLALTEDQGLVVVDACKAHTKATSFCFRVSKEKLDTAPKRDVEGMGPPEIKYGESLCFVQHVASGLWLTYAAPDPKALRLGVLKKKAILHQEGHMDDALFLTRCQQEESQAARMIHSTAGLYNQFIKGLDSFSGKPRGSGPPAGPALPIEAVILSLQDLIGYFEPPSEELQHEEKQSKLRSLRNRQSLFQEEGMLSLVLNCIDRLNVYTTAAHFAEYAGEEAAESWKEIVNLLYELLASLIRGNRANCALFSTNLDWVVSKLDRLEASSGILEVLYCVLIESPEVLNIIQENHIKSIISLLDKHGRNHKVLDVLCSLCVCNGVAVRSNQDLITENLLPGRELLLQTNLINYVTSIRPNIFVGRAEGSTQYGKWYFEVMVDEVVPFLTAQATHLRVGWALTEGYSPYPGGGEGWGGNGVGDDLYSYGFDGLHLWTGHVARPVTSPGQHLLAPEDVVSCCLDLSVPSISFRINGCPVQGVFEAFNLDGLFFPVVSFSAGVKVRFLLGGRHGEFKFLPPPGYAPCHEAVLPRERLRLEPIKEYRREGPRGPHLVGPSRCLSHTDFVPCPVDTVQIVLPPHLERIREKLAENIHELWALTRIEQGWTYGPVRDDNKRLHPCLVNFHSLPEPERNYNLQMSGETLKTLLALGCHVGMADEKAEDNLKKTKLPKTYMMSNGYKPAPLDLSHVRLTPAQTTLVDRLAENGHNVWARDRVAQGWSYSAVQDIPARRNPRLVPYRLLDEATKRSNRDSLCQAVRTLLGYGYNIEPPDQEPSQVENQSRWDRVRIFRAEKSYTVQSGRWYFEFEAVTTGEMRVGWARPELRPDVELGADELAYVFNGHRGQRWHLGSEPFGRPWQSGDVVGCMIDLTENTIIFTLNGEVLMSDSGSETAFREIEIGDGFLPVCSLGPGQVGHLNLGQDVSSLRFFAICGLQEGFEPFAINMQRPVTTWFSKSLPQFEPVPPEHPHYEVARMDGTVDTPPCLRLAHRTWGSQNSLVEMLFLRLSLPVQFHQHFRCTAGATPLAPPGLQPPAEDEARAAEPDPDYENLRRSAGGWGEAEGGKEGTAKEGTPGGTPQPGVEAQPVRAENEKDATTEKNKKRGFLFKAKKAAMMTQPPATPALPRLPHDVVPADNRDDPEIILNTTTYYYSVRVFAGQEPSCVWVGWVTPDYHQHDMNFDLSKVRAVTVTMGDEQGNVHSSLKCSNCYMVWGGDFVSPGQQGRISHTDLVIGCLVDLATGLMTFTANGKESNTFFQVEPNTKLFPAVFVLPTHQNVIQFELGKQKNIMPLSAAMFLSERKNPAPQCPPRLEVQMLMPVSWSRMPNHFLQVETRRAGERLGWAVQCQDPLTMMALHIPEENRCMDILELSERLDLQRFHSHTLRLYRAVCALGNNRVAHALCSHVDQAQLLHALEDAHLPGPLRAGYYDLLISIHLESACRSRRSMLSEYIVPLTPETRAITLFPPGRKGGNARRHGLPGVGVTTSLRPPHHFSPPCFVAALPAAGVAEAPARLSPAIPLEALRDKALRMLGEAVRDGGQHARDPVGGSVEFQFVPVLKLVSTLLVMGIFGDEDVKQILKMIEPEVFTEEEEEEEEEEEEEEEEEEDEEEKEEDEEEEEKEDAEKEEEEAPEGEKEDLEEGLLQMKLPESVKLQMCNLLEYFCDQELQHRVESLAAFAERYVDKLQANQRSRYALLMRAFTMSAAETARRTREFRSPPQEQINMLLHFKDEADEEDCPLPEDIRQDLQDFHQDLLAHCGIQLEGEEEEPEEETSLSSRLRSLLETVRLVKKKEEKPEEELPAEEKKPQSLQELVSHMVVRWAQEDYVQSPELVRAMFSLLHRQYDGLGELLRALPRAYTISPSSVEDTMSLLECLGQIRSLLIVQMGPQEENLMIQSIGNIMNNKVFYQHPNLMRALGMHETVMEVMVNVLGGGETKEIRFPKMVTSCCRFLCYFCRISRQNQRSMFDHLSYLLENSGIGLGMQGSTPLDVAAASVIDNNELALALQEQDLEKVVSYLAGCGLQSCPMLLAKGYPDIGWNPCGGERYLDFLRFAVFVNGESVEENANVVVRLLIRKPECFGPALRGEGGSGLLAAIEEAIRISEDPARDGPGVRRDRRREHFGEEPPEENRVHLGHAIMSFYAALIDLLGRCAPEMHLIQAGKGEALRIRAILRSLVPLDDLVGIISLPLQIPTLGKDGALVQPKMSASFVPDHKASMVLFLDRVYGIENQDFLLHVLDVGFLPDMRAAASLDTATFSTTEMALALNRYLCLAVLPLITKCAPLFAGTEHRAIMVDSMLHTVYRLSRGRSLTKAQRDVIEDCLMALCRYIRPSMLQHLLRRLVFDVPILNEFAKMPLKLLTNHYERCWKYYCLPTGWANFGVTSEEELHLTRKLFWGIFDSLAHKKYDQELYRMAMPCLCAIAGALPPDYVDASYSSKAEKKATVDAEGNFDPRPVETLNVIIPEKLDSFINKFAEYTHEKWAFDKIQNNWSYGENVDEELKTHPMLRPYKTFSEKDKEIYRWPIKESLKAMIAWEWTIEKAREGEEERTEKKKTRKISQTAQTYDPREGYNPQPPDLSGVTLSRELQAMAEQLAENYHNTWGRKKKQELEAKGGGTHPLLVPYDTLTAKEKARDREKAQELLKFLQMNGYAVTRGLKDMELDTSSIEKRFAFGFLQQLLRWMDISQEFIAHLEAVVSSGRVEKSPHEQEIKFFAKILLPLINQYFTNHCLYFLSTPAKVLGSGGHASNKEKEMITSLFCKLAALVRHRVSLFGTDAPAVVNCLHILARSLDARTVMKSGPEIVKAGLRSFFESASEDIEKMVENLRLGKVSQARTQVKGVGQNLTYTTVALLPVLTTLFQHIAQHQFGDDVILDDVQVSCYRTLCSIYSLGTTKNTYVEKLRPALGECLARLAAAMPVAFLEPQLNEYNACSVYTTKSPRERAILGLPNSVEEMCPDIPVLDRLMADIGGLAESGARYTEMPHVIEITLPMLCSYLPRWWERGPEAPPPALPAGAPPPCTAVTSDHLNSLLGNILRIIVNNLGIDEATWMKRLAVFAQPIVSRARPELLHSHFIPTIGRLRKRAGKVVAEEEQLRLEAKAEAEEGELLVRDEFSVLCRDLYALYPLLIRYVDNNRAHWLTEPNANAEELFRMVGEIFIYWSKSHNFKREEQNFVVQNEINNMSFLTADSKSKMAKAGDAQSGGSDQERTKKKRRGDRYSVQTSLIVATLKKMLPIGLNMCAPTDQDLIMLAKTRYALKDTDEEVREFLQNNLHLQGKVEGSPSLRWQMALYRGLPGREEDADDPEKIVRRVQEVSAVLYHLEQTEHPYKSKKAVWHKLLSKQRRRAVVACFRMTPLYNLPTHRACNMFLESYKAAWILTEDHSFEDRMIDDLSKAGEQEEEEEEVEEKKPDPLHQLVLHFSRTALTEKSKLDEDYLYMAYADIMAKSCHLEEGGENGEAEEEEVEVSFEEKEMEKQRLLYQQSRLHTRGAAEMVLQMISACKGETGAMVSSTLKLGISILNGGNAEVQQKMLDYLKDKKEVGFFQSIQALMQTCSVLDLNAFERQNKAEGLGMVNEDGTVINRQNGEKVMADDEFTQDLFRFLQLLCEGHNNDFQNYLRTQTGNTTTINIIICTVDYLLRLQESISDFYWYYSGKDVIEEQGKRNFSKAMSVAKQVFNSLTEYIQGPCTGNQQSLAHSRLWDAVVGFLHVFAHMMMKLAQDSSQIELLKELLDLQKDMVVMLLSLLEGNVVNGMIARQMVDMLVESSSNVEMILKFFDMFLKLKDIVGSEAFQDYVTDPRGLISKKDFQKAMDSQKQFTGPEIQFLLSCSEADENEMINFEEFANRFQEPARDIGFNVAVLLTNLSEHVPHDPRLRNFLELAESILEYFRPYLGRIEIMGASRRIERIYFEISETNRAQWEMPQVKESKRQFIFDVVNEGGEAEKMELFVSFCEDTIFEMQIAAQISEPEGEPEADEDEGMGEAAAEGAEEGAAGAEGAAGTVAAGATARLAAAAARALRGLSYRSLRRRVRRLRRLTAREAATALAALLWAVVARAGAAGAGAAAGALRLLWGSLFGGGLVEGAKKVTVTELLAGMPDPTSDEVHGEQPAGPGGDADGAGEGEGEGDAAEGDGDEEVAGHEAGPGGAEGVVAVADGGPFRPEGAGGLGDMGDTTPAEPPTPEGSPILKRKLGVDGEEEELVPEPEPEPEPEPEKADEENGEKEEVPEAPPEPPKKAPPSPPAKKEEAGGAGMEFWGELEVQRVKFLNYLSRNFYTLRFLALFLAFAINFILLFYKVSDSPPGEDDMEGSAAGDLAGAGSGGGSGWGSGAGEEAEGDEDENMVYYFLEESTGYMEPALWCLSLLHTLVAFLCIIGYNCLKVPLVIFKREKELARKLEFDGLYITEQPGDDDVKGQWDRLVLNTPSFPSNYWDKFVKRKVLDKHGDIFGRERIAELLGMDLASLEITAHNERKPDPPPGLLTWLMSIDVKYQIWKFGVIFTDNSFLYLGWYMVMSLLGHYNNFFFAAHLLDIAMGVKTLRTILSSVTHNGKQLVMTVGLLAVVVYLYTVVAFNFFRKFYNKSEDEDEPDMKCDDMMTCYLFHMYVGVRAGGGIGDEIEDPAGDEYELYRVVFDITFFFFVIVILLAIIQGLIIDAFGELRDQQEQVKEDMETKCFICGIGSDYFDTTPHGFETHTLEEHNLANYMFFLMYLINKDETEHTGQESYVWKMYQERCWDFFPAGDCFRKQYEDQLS
Protocol: Cardiac SR was prepared from mature female crossbred sheep hearts, and skeletal SR vesicles were isolated from the back and leg muscles of mature female New Zealand white rabbits[29],[54] with approval from the ANU Animal Experiment Ethics Committee Protocol Number A2015/35. […] Solutions for vesicle incorporation contained (mM): cis 230 caesium methanesulfonate (CsMS); 20 CsCl; 1 CaCl2 and 10 […] (TES) pH 7.4 and trans 30 CsMS; 20 CsCl; 1 CaCl2 10 TES; pH 7.4. […] Following incorporation, 200 mM CsMS was added to the trans solution and the cis solution exchanged with recording solution containing (mM): 230 CsMS; 20 CsCl; 0.001 CaCl2;10 TES and pH 7.4, with [Ca^2+] set by a [BAPTA] determined using a Ca^2+ electrode. The cytoplasmic and luminal solutions contained 1 μM and 1 mM Ca^2+ respectively, with symmetrical 250/250 mM CsMS. Bilayer voltage was switched between +40 mV and −40 mV (cytoplasmic voltage relative to grounded luminal solution) every 30 s. The activity of the RyR channels used here included 1 µM Ca^2+ in the cytoplasmic solution and 1 mM Ca^2+ in the luminal solution[29],[55]. Electrophysiology experiments were analysed using Channel 2 (P.W. Gage, M. Smith, Australian National University) and Channel 3 (N.W. Laver, University of Newcastle, Australia) software, available from the authors upon request. Statistical analyses were performed using Microsoft Excel (Office 365). […] Following most incorporation events, a single channel only was active in the bilayer and channel open probability (Po), mean open time (To), mean closed time (Tc) and open event frequency (Fo) were measured. When 2–4 channels were active in a bilayer, PO was approximated from the fractional mean current (I’F), i.e., mean current divided by maximum current. I’F is equal to PO in a single channel and indicates the average PO of multiple channels in a bilayer. […] Experiments at UN also included a minority of multi-channel experiments. The bilayer rigs, solution composition, source of channels, data acquisition and analyses methods were all identical.
Statistical analysis of single channel data was performed using Excel spreadsheets and embedded Students t-test functions or a sign test as indicated in the graphs in Figs. 1 and 3.

ryanodine receptor = target: T2, ryanodine receptor (Oryctolagus cuniculus, UniProt P11716); assay: Single channel recording with Xt3a exposure, sheet "Figure 3B" (RyR isoform not given); format: biochemical
T2 construct: skeletal SR vesicles were isolated from the back and leg muscles of mature female New Zealand white rabbits; from tissue; host or cells: rabbit back and leg skeletal muscle, sarcoplasmic reticulum vesicles
T2 sequence (P11716 whole entry, canonical isoform): as the sequence (P11716 whole entry) above

φ-Xibalbin3-Xt3a
activity against RyR1 (discussion) (RyR1): even more potent than IpTxA | relPo (RyR1; 10 pM Xt3a, mean (sem in row below)): 4.209 | relPo (RyR1; 10 pM Xt3a, replicate CT1012 n): 4.171 | relPo (RyR1; 10 pM Xt3a, replicate CT1013 n): 17.6667 | relPo (RyR1; 10 pM Xt3a, replicate CT1024 n): 1.745 | relPo (RyR1; 10 pM Xt3a, replicate CT1051 n): 0.553 | relPo (RyR1; 10 pM Xt3a, replicate CT1052 n): 1.086 | relPo (RyR1; 10 pM Xt3a, replicate CT1055 n): 3.339 | relPo (RyR1; 10 pM Xt3a, replicate CT1143 n): 0.669 | relPo (RyR1; 10 pM Xt3a, replicate CT1144 n): 11.3 | relPo (RyR1; 10 pM Xt3a, replicate CT1145 n): 13.6431 | relPo (RyR1; 10 pM Xt3a, replicate CT1146 n): 1.397 | channel open probability (PO) relative to baseline (RyR1; 10 pM to 1 µM): significant changes in all Xt3a concentrations tested | substate level, % of maximum conductance (RyR1; 100 pM Xt3a, −40 mV, prolonged gating to substate levels): < 50% | relPo (RyR1; 100 pM Xt3a, mean (sem in row below)): 2.735 | relPo (RyR1; 100 pM Xt3a, replicate CT1012 n): 1.829 | relPo (RyR1; 100 pM Xt3a, replicate CT1013 n): 17 | relPo (RyR1; 100 pM Xt3a, replicate CT1024 n): 1.169 | relPo (RyR1; 100 pM Xt3a, replicate CT1051 n): 0.6185 | relPo (RyR1; 100 pM Xt3a, replicate CT1052 n): 1.17 | relPo (RyR1; 100 pM Xt3a, replicate CT1055 n): 1.101 | relPo (RyR1; 100 pM Xt3a, replicate CT1143 n): 1.262 | relPo (RyR1; 100 pM Xt3a, replicate CT1144 n): 6.375 | relPo (RyR1; 100 pM Xt3a, replicate CT1145 n): 3.125 | relPo (RyR1; 100 pM Xt3a, replicate CT1146 n): 1.411 | decline in PO compared with 10 nM Xt3a (RyR1; 0.1–1 µM Xt3a): ~ 50% | full conductance channel openings (high affinity activation) (RyR1; Xt3a up to 10 nM): led to an increase in full conductance channel openings | voltage-dependent promotion of channel substate activity (RyR1; −40 mV vs +40 mV, RyR1 and RyR2): greater in the presence of nanomolar concentrations of Xt3a in RyR1 than in RyR2 | rel Po (ryanodine receptor; 1nM Xt3a vs 1 micoM Ca, CT1124n): 0.8977 | rel Po (ryanodine receptor; 1nM Xt3a vs 1 micoM Ca, CT1124p): 0.6333 | rel Po (ryanodine receptor; 1nM Xt3a vs 1 micoM Ca, CT1125p (r7)): 0.7826 | rel Po (ryanodine receptor; 1nM Xt3a vs 1 micoM Ca, CT1125p (r12)): 0.3373 | rel Po (ryanodine receptor; 1nM Xt3a vs 1 micoM Ca, CT1126n): 1.286 | rel Po (ryanodine receptor; 1nM Xt3a vs 1 micoM Ca, CT1126p): 0.0123 | rel Po (ryanodine receptor; 1nM Xt3a vs 1 micoM Ca, CT1129p): 0.92 | rel Po (ryanodine receptor; 1nM Xt3a vs 1 micoM Ca, mean of 7 records): 0.6956 | rel Po (ryanodine receptor; 10nM Xt3a vs 1 micoM Ca, CT1124n): 0.4488 | rel Po (ryanodine receptor; 10nM Xt3a vs 1 micoM Ca, CT1124p): 0.3778 | rel Po (ryanodine receptor; 10nM Xt3a vs 1 micoM Ca, CT1125p (r7)): 1.957 | rel Po (ryanodine receptor; 10nM Xt3a vs 1 micoM Ca, CT1125p (r12)): 1.108 | rel Po (ryanodine receptor; 10nM Xt3a vs 1 micoM Ca, CT1126n): 2.128 | rel Po (ryanodine receptor; 10nM Xt3a vs 1 micoM Ca, CT1126p): 0.02049 | rel Po (ryanodine receptor; 10nM Xt3a vs 1 micoM Ca, CT1129p): 0.23 | rel Po (ryanodine receptor; 10nM Xt3a vs 1 micoM Ca, mean of 7 records): 0.8957 | rel Po (ryanodine receptor; 100nM Xt3a vs 1 micoM Ca, CT1134 n): 0.7716 | rel Po (ryanodine receptor; 100nM Xt3a vs 1 micoM Ca, CT1134 p): 1.135 | rel Po (ryanodine receptor; 100nM Xt3a vs 1 micoM Ca, CT1135 n): 0.4052 | rel Po (ryanodine receptor; 100nM Xt3a vs 1 micoM Ca, CT1135 p): 0.4783 | rel Po (ryanodine receptor; 100nM Xt3a vs 1 micoM Ca, CT1136 n): 1.741 | rel Po (ryanodine receptor; 100nM Xt3a vs 1 micoM Ca, CT1136 p): 0.75 | rel Po (ryanodine receptor; 100nM Xt3a vs 1 micoM Ca, CT1137 n): 0.9231 | rel Po (ryanodine receptor; 100nM Xt3a vs 1 micoM Ca, CT1137p): 4 | rel Po (ryanodine receptor; 100nM Xt3a vs 1 micoM Ca, CT1138n): 4.333 | rel Po (ryanodine receptor; 100nM Xt3a vs 1 micoM Ca, CT1138p): 1.4 | rel Po (ryanodine receptor; 100nM Xt3a vs 1 micoM Ca, mean of 10 records): 1.5937 | rel Po (ryanodine receptor; 1 microM Xt3a vs 1 micoM Ca, CT1134 n): 1.472 | rel Po (ryanodine receptor; 1 microM Xt3a vs 1 micoM Ca, CT1134 p): 4.143 | rel Po (ryanodine receptor; 1 microM Xt3a vs 1 micoM Ca, CT1135 n): 32.1638 | rel Po (ryanodine receptor; 1 microM Xt3a vs 1 micoM Ca, CT1136 n): 1 | rel Po (ryanodine receptor; 1 microM Xt3a vs 1 micoM Ca, CT1136 p): 0.625 | rel Po (ryanodine receptor; 1 microM Xt3a vs 1 micoM Ca, CT1137 n): 1.769 | rel Po (ryanodine receptor; 1 microM Xt3a vs 1 micoM Ca, CT1137p): 2 | rel Po (ryanodine receptor; 1 microM Xt3a vs 1 micoM Ca, CT1138n): 1.286 | rel Po (ryanodine receptor; 1 microM Xt3a vs 1 micoM Ca, CT1138p): 0.9 | rel Po (ryanodine receptor; 1 microM Xt3a vs 1 micoM Ca, mean (CT1135 p cell empty)): 5.04

From publication PMC9950431, “A bivalent remipede toxin promotes calcium release via ryanodine receptor activation” (Nature Communications, 2023)
